Laboratory results published in the NIST ThermoML archive (doi:10.1021/acs.jced.5b00181).

Legend:
[1] = xn = mol fraction of the nth substance listed; settings: 101 kPa, Liquid, x2 = 0; for viscosity: Falling or rolling sphere viscometry; for speed of sound: Frequency=3 MHz, Sing-around technique in a fixed-path interferometer; for mass density: Vibrating tube method
[2] = 101 kPa, Liquid; for viscosity: Falling or rolling sphere viscometry; for speed of sound: Frequency=3 MHz, Sing-around technique in a fixed-path interferometer; for mass density: Vibrating tube method

CCCO [propan-1-ol] + CCCCCC[n+]1ccn(C)c1.O=S(=O)([N-]S(=O)(=O)C(F)(F)F)C(F)(F)F
[1]
Settings	mass density [kg/m3]	speed of sound [m/s]	viscosity [mPa·s]
278.15 K	815.46	1275.5	3.191
298.15 K	799.55	1205.3	1.936
318.15 K	783.18	1137.5	1.242
338.15 K	765.96	1070.8	0.836

CCCO [propan-1-ol]
[2]
Settings	mass density [kg/m3]	speed of sound [m/s]	viscosity [mPa·s]
278.15 K	815.46	1275.5	3.191
298.15 K	799.55	1205.3	1.936
318.15 K	783.18	1137.5	1.242
338.15 K	765.96	1070.8	0.836

CCCO [propan-1-ol] + CCCC[n+]1ccn(C)c1.O=S(=O)([N-]S(=O)(=O)C(F)(F)F)C(F)(F)F
[1]
Settings	mass density [kg/m3]	speed of sound [m/s]	viscosity [mPa·s]
278.15 K	815.46	1275.5	3.191
298.15 K	799.55	1205.3	1.936
318.15 K	783.18	1137.5	1.242
338.15 K	765.96	1070.8	0.836

CCCO [propan-1-ol] + CCn1cc[n+](C)c1.O=S(=O)([N-]S(=O)(=O)C(F)(F)F)C(F)(F)F
[1]
Settings	mass density [kg/m3]	speed of sound [m/s]	viscosity [mPa·s]
278.15 K	815.46	1275.5	3.191
298.15 K	799.55	1205.3	1.936
318.15 K	783.18	1137.5	1.242
338.15 K	765.96	1070.8	0.836
